EC50 and Ki data for 68 compounds are collected here from PubChem BioAssay AID1896 (NMMLSC, 2009).

What is called EC50 is the midpoint of the concentration-response curve. The Ki is a measure of affinity in units of concentration, obtained from inhibition or displacement.

Activity calls are given as the source filed them. The rule behind the calls is not given here.

Sequence of Mitogen-activated protein kinase kinase kinase 3 (Homo sapiens) (Q99759 whole entry, looked up): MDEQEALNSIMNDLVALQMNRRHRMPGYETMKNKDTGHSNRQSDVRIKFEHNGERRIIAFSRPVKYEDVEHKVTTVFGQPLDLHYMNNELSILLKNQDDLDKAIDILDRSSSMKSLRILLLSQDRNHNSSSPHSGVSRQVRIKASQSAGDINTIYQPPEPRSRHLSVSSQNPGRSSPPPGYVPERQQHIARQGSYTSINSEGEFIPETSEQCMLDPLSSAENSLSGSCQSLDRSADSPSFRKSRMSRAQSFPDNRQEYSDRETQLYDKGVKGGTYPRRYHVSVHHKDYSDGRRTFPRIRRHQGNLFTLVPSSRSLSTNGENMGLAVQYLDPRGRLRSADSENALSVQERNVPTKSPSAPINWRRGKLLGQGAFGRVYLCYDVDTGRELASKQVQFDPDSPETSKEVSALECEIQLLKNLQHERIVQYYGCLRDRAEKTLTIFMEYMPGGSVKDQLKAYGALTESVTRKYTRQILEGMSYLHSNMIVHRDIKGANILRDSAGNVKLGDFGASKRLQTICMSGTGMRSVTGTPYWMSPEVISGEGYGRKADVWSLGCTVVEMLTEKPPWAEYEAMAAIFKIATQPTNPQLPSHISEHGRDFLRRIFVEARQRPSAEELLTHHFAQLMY

One test concerns the target Mitogen-activated protein kinase kinase kinase 3 (Homo sapiens) (UniProt Q99759). Put plainly: MEKK3 PB1-MEK5 interaction blockers – biochemical, bead multiplex flow cytometry, wildtype, dose response (AID 1896). The conditions noted are these: bead-based multiplex flow cytometry, MEK5-MEKK3 PB1 binding.
In the case of `CCN1/C(=C/c2ccc3cc(C)ccc3[n+]2CC)Sc2cc(C)c(C)cc21`, the EC50 was 5.79 µM.

Take `CSc1cccc(NC(=S)N(CCCN2CCCC2)Cc2cccn2Cc2ccc(Cl)cc2)c1`: the EC50 was > 30 µM (inactive).

In the case of `COc1ccc(/C=N/Nc2cc(C)nc3ccc(Br)cc23)cc1`, the EC50 is > 30 µM (inactive).

In the case of `CCCCCCCCCCCCCCCC[n+]1cccc2ccccc21`, the EC50 was > 30 µM (inactive).

For the compound `CN(C)CCCNc1cc(C(C)(C)C)nc2c(-c3ccc(Cl)cc3)cnn12`, the EC50 was > 30 µM (inactive).

As to `CCc1ccc(Nc2n[n+](-c3ccccc3)c(-c3ccc(OC)c(Br)c3)s2)cc1`, the EC50 is > 30 µM (inactive).

On to `C#CCOCCOCCOCCNc1nc(N2CCN(C(=O)[C@H](Cc3ccc(O)cc3)n3cc([C@@H](N)CC(C)C)nn3)CC2)nc(N2CCN(C(=O)[C@H](Cc3ccc(O)cc3)n3cc([C@@H](N)CC(C)C)nn3)CC2)n1`, for which the EC50 is > 30 µM (inactive).

On to `CCCN1C(=O)/C(=C\C=C2/Sc3ccccc3N2CC)SC1=S`, for which the EC50 was > 30 µM (inactive).

With `COc1ccc(-n2nc3c(N)n[nH]c3cc2=O)cc1`, the EC50 is 1.13 µM.

Turning to `NC(=NCCCCCCN=C(N)/N=C(\N)Nc1ccc(Cl)cc1)/N=C(\N)Nc1ccc(Cl)cc1`, the EC50 is > 30 µM (inactive).

For `O=C(OCC1O[C@@H](OC(=O)c2cc(O)c(O)c(O)c2)[C@@H](OC(=O)c2cc(O)c(O)c(O)c2)[C@@H](OC(=O)c2cc(O)c(O)c(O)c2)[C@@H]1OC(=O)c1cc(O)c(O)c(O)c1)c1cc(O)c(O)c(O)c1` (some centres not stated), the EC50 is > 30 µM (inactive).

In the case of `CCN(CC)CCNC(=O)c1ccc(NC(=O)c2cn(-c3ccccc3)nc2-c2cccs2)cc1`, the EC50 is > 30 µM (inactive).

As for `CCCCCCCCCCOC(=O)Cn1c(COc2ccc(C)cc2)[n+](C)c2ccccc21`, the EC50 is > 30 µM (inactive).

On to `C=CCN1C(=O)/C(=C/c2ccc(-c3ccc(F)cc3)o2)SC1=S`, for which the EC50 was > 30 µM (inactive).

Regarding `N=C(N)SCc1cn(-c2ccccc2)nc1-c1ccc(Br)cc1`, the EC50 was > 30 µM (inactive).

In the case of `C#CCOCCOCCOCCNc1nc(N2CCN(C(=O)C(Cc3ccc(O)cc3)n3cc(C(N)CC(C)C)nn3)CC2)nc(N2CCN(C(=O)C(Cc3cc4ccccc4[nH]3)n3cc(C(N)Cc4ccc(O)cc4)nn3)CC2)n1` (configuration not stated), the EC50 is > 30 µM (inactive).

On to `CCCCCCCCCCOC(=O)Cn1c(COc2cccc(OC)c2)[n+](C)c2ccccc21`, for which the EC50 is > 30 µM (inactive).

Take `C#CCOCCOCCOCCNc1nc(N2CCN(C(=O)[C@H](CCCCN)n3cc([C@@H](N)CC(C)C)nn3)CC2)nc(N2CCN(C(=O)[C@H](Cc3cc4ccccc4[nH]3)n3cc([C@@H](N)Cc4ccc(O)cc4)nn3)CC2)n1`: the EC50 is > 30 µM (inactive).

For `COc1ccc(Cn2c(SCc3ccccc3C)nc3cc(OC)c(OC)cc3c2=N)cc1`, the EC50 is > 30 µM (inactive).

In the case of `C#CCOCCOCCOCCNc1nc(N2CCN(C(=O)C(Cc3cc4ccccc4[nH]3)n3cc(C(N)C(C)CC)nn3)CC2)nc(N2CCN(C(=O)C(Cc3cc4ccccc4[nH]3)n3cc(C(N)C(C)CC)nn3)CC2)n1` (configuration not stated), the EC50 was > 30 µM (inactive).

For the compound `S=C(Nc1cccc(Cl)c1)N(CCCN1CCCC1)Cc1cccn1Cc1ccc(Cl)cc1`, the EC50 is > 30 µM (inactive).

Take `C#CCOCCOCCOCCNc1nc(N2CCN(C(=O)[C@H](Cc3cc4ccccc4[nH]3)n3cc([C@@H](N)CC(C)C)nn3)CC2)nc(N2CCN(C(=O)[C@H](Cc3cc4ccccc4[nH]3)n3cc([C@@H](N)CC(C)C)nn3)CC2)n1`: the EC50 is > 30 µM (inactive).

In the case of `CN1CCN(CC(=O)N2CCn3c4c(c5cc(C6CCCCC6)ccc53)CCCC42)CC1` (configuration not stated), the EC50 is > 30 µM (inactive).

With `CCN1/C(=C/C(C)=C/c2sc3ccccc3[n+]2CC)Sc2ccccc21`, the EC50 was 1.01 µM.

Consider `CCC(/C=C1\Sc2ccc(OC)cc2N1CC)=C\c1sc2ccc(OC)cc2[n+]1CCCS(=O)(=O)[O-]`, for which the EC50 is > 30 µM (inactive).

In the case of `COc1ccc(C(CCNCc2ccc(OC(C)C)cc2)c2ccccc2OC)cc1` (configuration not stated), the EC50 is > 30 µM (inactive).

In the case of `COc1ccccc1N(CN1C(=O)c2ccccc2C1=O)C(=O)c1cccc(C)c1`, the EC50 is > 30 µM (inactive).

For the compound `COc1ccc(Cn2c(SCc3ccc(C)cc3)nc3cc(OC)c(OC)cc3c2=N)cc1Cl`, the EC50 is > 30 µM (inactive).

In the case of `O=C1Nc2ccc(Br)cc2/C1=N/N=C/C1=C(N2CCOCC2)C(=C\c2ccccc2)/CC1`, the half-maximal effective concentration (EC50) is 1.76 µM.

Regarding `CCCCCCCCCCOC(=O)Cn1c(COc2cccc(C)c2)[n+](C)c2ccccc21`, the EC50 is > 30 µM (inactive).

On to `COc1ccc(-c2[nH]ncc2CN2CCCCCCC2)c(OC)c1`, for which the EC50 is > 30 µM (inactive).

Consider `CCN1/C(=C/C=C/C=C/C=C/c2sc3ccccc3[n+]2CC)Sc2ccccc21`, for which the EC50 was > 30 µM (inactive).

On to `CNc1nc(-c2c[nH]c3ccccc23)cs1`, for which the EC50 was 8.73 µM.

As for `c1ccc(CNc2nc(NCc3ccccc3)c3ccccc3n2)cc1`, the EC50 is > 30 µM (inactive).

Regarding `O=C(CCCC(=O)N(CC(=O)NC1CCCC1)C1CCCC1)Nc1ccccn1`, the EC50 was > 30 µM (inactive).

As for `CCOC(=O)c1c(-c2ccc(-c3ccccc3)cc2)csc1NC(=O)CNCCN(C)C`, the EC50 was > 30 µM (inactive).

As for `C#CCOCCOCCOCCNc1nc(N2CCN(C(=O)[C@H](Cc3cc4ccccc4[nH]3)n3cc([C@@H](N)C(C)CC)nn3)CC2)nc(N2CCN(C(=O)[C@H](CCCCN)n3cc([C@@H](N)CC(C)C)nn3)CC2)n1` (some centres not stated), the EC50 was > 30 µM (inactive).

In the case of `O=C(c1cc(COc2c(F)cccc2F)on1)N1C[C@H]2CC[C@H]1C2`, the EC50 is > 30 µM (inactive).

For the compound `Cc1ccnc(NC(=O)C2(c3cccs3)CCOCC2)c1`, the EC50 was > 30 µM (inactive).

With `CC(=O)Nc1ccc(OCC(O)Cn2c3ccccc3c3ccccc32)cc1` (configuration not stated), the EC50 was > 30 µM (inactive).

`CCN1/C(=C/c2ccc3cc(C)ccc3[n+]2C)Sc2ccc3sccc3c21`: the EC50 is > 30 µM (inactive).

For the compound `COc1ccc(-c2csc(N(CCCN(C)C)C(=O)c3ccccc3Cl)n2)cc1`, the EC50 was > 30 µM (inactive).

With `CCc1ccc(-c2nn(-c3ccccc3)cc2CSC(=N)N)cc1`, the EC50 was > 30 µM (inactive).

On to `CC(C)N=c1cc2n(-c3ccc(Cl)cc3)c3ccccc3nc-2cc1Nc1ccc(Cl)cc1`, for which the EC50 is > 30 µM (inactive).

Take `CN(C)CCCn1c(SCC(=O)Nc2nc(-c3cccc(Br)c3)cs2)nc2ccccc2c1=O`: the EC50 is > 30 µM (inactive).

For the compound `CCN1/C(=C\c2ccc3cc(C)ccc3[n+]2CC)Sc2cc(C)c(C)cc21`, the EC50 is 9.27 µM.

Regarding `C=CC#CC[N+]1(CC#Cc2ccccc2)CCOCC1`, the EC50 was > 30 µM (inactive).

Consider `CCOc1ccc(C2=C/C(=C/c3cccnc3)C(=O)O2)cc1`, for which the EC50 was > 30 µM (inactive).

As for `S=c1[nH]nc(-c2ccc(Cl)cc2)n1-c1ccc2c(c1)OCCO2`, the EC50 is > 30 µM (inactive).

For the compound `CCc1ccc(Nc2n[n+](-c3ccccc3)c(-c3ccc(OCc4ccccc4)cc3)s2)cc1`, the EC50 was > 30 µM (inactive).

Regarding `C#CCOCCOCCOCCNc1nc(N2CCN(C(=O)[C@H](Cc3cc4ccccc4[nH]3)n3cc([C@@H](N)C(C)CC)nn3)CC2)nc(N2CCN(C(=O)[C@H](Cc3cc4ccccc4[nH]3)n3cc([C@@H](N)CC(C)C)nn3)CC2)n1` (some centres not stated), the EC50 is > 30 µM (inactive).

For the compound `CCOC(=O)c1c(CSC(=N)N)n(-c2ccc(C)cc2)c2cc(Br)c(OC(C)=O)cc12`, the EC50 was > 30 µM (inactive).

Turning to `Cc1cc(N=Nc2ccc(C)c(N=Nc3cc(C)c(N)cc3N)c2)c(N)cc1N`, the EC50 is > 30 µM (inactive).

As to `CCN(CC)CCOC(=O)c1ccc(N/C=C(/C#N)c2nc(-c3ccc4c(c3)OCO4)cs2)cc1`, the EC50 was > 30 µM (inactive).

With `CCN1CCN(Cc2ccc(NC(=O)c3ccc(C)c(NC(=O)C(=O)c4c[nH]c5ccccc45)c3)cc2C(F)(F)F)CC1`, the EC50 is > 30 µM (inactive).

`C#CCOCCOCCOCCNc1nc(N2CCN(C(=O)[C@H]([C@@H](C)CC)n3cc([C@@H](N)CO)nn3)CC2)nc(N2CCN(C(=O)[C@H](Cc3cc4ccccc4[nH]3)n3cc([C@@H](N)Cc4ccc(O)cc4)nn3)CC2)n1`: the EC50 is 8.28 µM.

In the case of `CNC[C@H](CC1CCCCC1)NC[C@H](Cc1ccccc1)NCCC12CC3CC(CC(C3)C1)C2`, the EC50 is > 30 µM (inactive).

Regarding `CN1CCN(c2ccc(NC(=O)c3ccc(-c4ccc(Cl)cc4)o3)cc2)CC1`, the concentration for a half-maximal effect (EC50) was 2.68 µM.

Turning to `COC(=O)C1=C(C)N(Cc2ccccc2)C(=NCc2cccc(C(F)(F)F)c2)N[C@H]1c1cccc(F)c1`, the EC50 was > 30 µM (inactive).

On to `CCOC(=O)C(C(=O)OCC)c1cc(Br)c2noc3c2c1C(=O)c1ccccc1-3`, for which the EC50 is > 30 µM (inactive).

For `CCN(Cc1ccccc1)S(=O)(=O)c1ccc(C(=O)N(CCCN(C)C)c2nc3ccc(F)cc3s2)cc1`, the EC50 was > 30 µM (inactive).

Regarding `Cc1cc2cc(CNC(=O)NC3CCCCC3)ccc2[nH]1`, the concentration for a half-maximal effect (EC50) is 3.98 µM.

Take `O=C(Nc1ccc(Cl)cn1)c1ccc2c(Cl)c3c(nc2c1)CCC3`: the EC50 was > 30 µM (inactive).

Consider `CCOC(=O)c1c(C)n(-c2ccc(C)cc2)c2ccc(OCC(O)CN3CCN(C)CC3)cc12` (configuration not stated), for which the EC50 was > 30 µM (inactive).

Take `C#CCOCCOCCOCCNc1nc(N2CCN(C(=O)[C@H]([C@@H](C)CC)n3cc([C@@H](N)CO)nn3)CC2)nc(N2CCN(C(=O)[C@H](Cc3cc4ccccc4[nH]3)n3cc([C@@H](N)C(C)CC)nn3)CC2)n1` (some centres not stated): the EC50 was > 30 µM (inactive).

For the compound `Nc1ccc2nc(-c3ccc(-c4nc5ccc(N)cc5[nH]4)cc3)[nH]c2c1`, the EC50 is > 30 µM (inactive).

Turning to `COc1ccc2[nH]c3c(C)c4ccncc4c(C)c3c2c1`, the EC50 is > 30 µM (inactive).

Take `COc1ccc2nc3cc(Cl)ccc3c(Nc3cc(C(C)C)c(O)cc3C)c2c1`: the EC50 is > 30 µM (inactive).

The same test, now with this note: bead-based multiplex flow cytometry, MEK5-MEKK3 PB1 binding; measured here: Ki from EC50.
Consider `CCN1/C(=C/c2ccc3cc(C)ccc3[n+]2CC)Sc2cc(C)c(C)cc21`, for which the inhibitory constant (Ki) came out at 4.96 µM.

For `COc1ccc(-n2nc3c(N)n[nH]c3cc2=O)cc1`, the Ki turned out to be 0.97 µM.

As to `CCN1/C(=C/C(C)=C/c2sc3ccccc3[n+]2CC)Sc2ccccc21`, the inhibition constant (Ki) stood at 0.86 µM.

Compound `O=C1Nc2ccc(Br)cc2/C1=N/N=C/C1=C(N2CCOCC2)C(=C\c2ccccc2)/CC1` returned a Ki of 1.5 µM.

`CNc1nc(-c2c[nH]c3ccccc23)cs1` showed an inhibition constant Ki of 7.47 µM.

In the case of `CCN1/C(=C\c2ccc3cc(C)ccc3[n+]2CC)Sc2cc(C)c(C)cc21`, the inhibition constant (Ki) turned out to be 7.93 µM.

The compound `C#CCOCCOCCOCCNc1nc(N2CCN(C(=O)[C@H]([C@@H](C)CC)n3cc([C@@H](N)CO)nn3)CC2)nc(N2CCN(C(=O)[C@H](Cc3cc4ccccc4[nH]3)n3cc([C@@H](N)Cc4ccc(O)cc4)nn3)CC2)n1` gave an inhibition constant (Ki) of 7.08 µM.

In turn, `CN1CCN(c2ccc(NC(=O)c3ccc(-c4ccc(Cl)cc4)o3)cc2)CC1` displayed an inhibitory constant (Ki) of 2.29 µM.

As to `Cc1cc2cc(CNC(=O)NC3CCCCC3)ccc2[nH]1`, the Ki was found to be 3.41 µM.
